The text below walks through data of patent US12551464B2, “N-(3-amino-3-oxopropyl)-2-[(1-methyl-4-nitro-1H-imidazol-5-yl)thio]benzamide and its use for treating HIV infection” (The United States of America, as represented by the …, priority 2019, dated 2026).

Structures are written as SMILES. pEC50: −log10 of the molar value. “And” between values parts separate entries of the source, which are not always exact repeats. Equal entries are not always repeated. Where two headings read alike, the source gives them in different places.

A short description of data set [1]: Toxicity of metabolite, method not described.
Data set [2] deals with simian immunodeficiency virus (SIV). Description: Viral infectivity assay: virus isolated from the animals used to infect CEMx174 cells, p27 Gag ELISA. The data set is classed as in vivo, rhesus macaques. As for the experimental part:
(§1) Two SIV-infected rhesus macaques were treated with 300 mg/kg of the compound of formula (I) once daily via oral gavage. Viral load before treatment and after 6 months of treatment were measured by RT-PCR. Viral infectivity was determined by measuring the amount of p27 Gag (in pg/mL) in a viral infectivity assay wherein virus isolated from the animals was used to infect CEMx174 cells, followed by ELISA. Viral samples were diluted 1:1000 prior to assay. The CD4 count for each monkey was measured after 6 months.
(In general: An ELISA detects its analyte on a solid surface through an enzyme-linked reagent.)

Data set [3] relates to CXCR4 Tropic Clade B HIV-192HT599. Description: Anti-HIV activity in human PBMCs, reverse transcriptase in culture supernatants. The data set is classed as cell-based. The settings on record: PBMC, 7 days in culture. As to the method: (§2) PHA-P stimulated PBMCs from three donors were pooled together and resuspended in fresh tissue culture medium at 1×10^6 cells/mL and plated in the interior wells of a 96 well round bottom microplate at 50 μL/well. A 100 μL volume of 9 concentrations of the compound serially diluted were transferred to the round bottom 96 well plate containing the cells in triplicate. 50 μL of HIV-1 at a predetermined dilution was added. Each plate contained cell control wells and virus control wells in parallel with the experimental wells. After 7 days in culture, efficacy was evaluated by measuring the reverse transcriptase in the culture supernatants and the cells were stained with the tetrazolium dye XTT to evaluate cytotoxicity.

The nature of data set [4]: Maximum tolerated dose and dose range finding study in rats. It counts as in vivo. As for the experimental part:
The maximum tolerated dose in rats of the compound of formula (I) was determined to be greater than 2 g/day.

A short description of data set [5]: Pharmacokinetics in cynomolgus macaques. The following applies: 300 mg/kg p.o. oral gavage. It counts as in vivo. As for the experimental part: The compound of formula (I) was administered to cynomolgus macaques at a dose of 300 mg/kg p.o. via oral gavage.
The test system of data set [6] is simian immunodeficiency virus (SIV). The data set can be described thus: Viral load by RT-PCR in SIV-infected rhesus macaques. It counts as in vivo. As for the experimental part: as §1
The nature of data set [7]: CD4 count in SIV-infected rhesus macaques. It counts as in vivo. As to the method:
as §1

The next data set has as its system PBMCs. Description: Cytotoxicity in human PBMCs, XTT staining. The data set is classed as cell-based. The settings on record: 7 days in culture, read-out: TC50 (the source's name). As to the method:
as §2
On the technique in general: Tetrazolium dyes change colour on reduction, which living cells bring about.

The nature of data set [8]: Cytotoxicity in human PBMCs, XTT staining. The data set is classed as cell-based. The following applies: human, PHA-P stimulated PBMCs pooled from three donors; Incubation Time 0 hours; 7 days in culture; read-out: TC50. As to the method:
as §2

For the compound `CSc1ccccc1C(=O)NCCC(N)=O` [Compound 3], the toxicity entry in data set [1] is listed as “non-toxic”.
A word on the pEC50: it is the negative decadic logarithm of the EC50, by convention in mol/L. Read a high pEC50 as a small EC50. The term MTD denotes the largest dose that counted as tolerated. A lower MTD goes with poorer tolerability. The term AUC denotes concentration integrated over time. High values mean high exposure, low ones low exposure. The term half-life denotes how long it takes for the measured level to halve. Read a high half-life as slow decline. On to `Cn1cnc([N+](=O)[O-])c1Sc1ccccc1C(=O)NCCC(N)=O` [compound of formula (I), N-(3-amino-3-oxopropyl)-2-[(1-methyl-4-nitro-1H-imidazol-5-yl)thio]benzamide], for which the “Treated Viral Infectivity (p27 Gag)” value in data set [2] (300 mg/kg once daily oral gavage, 6 months, viral samples diluted 1:1000, CEMx174 cells, ELISA) was <0.1 pg/mL. Besides, in [2] (300 mg/kg p.o. daily over 6 months), the “viral infectivity of SIV from treated animals compared with before treatment” value was “significantly decreased”. The pEC50 in [3] (Incubation Time 0 hours) is 5.49; in [3] (Incubation Time 2 hours), 5.15; in [3] (Incubation Time 8 hours), 5.29; in data set [3] (Incubation Time 24 hours), 5.35. Besides, in data set [4] (2 g/kg p.o., once per day for 14 days), the “adverse clinical outcomes in dose range finding study” value is listed as “did not show adverse clinical outcomes”. Further, the MTD at 14 days in [4] (rat, in vivo, oral, 2 g/kg) was > 2000 mg/kg/day. Moreover, the metabolism in blood result in data set [5] was “converted to two major metabolites”. This compound also displayed an AUC in [5] (cynomolgus monkey, blood) of 5780 ng·h/mL. In data set [5] (cynomolgus monkey, blood), this compound showed a half-life of 7.6 h. For the same compound, the “Treated Viral Load” value in [6] (300 mg/kg once daily oral gavage, after 6 months of treatment, RT-PCR) is 2.86 × 10^4 and 1.73 × 10^3. Moreover, in data set [6] (300 mg/kg p.o. daily over 6 months, versus before treatment), the “reduction in viral load” value is “approximately one”. The “Treated CD4 Count” value in [7] (300 mg/kg once daily oral gavage, after 6 months) is 365 and 363. The “CD4 counts, assessment” value in data set [7] (after 6 months of 300 mg/kg p.o. daily) is given as “deemed normal”. The CC50 with PBMCs (Incubation Time 2 hours), in the data set on PBMCs (Incubation Time 8 hours) and with PBMCs (Incubation Time 24 hours) was > 100 µM each time. The CC50 at 7 days in data set [8] was > 100 µM.
